The results in this text go back to publication PMC11087268, “A folate inhibitor exploits metabolic differences in Pseudomonas aeruginosa for narrow-spectrum targeting” (Nature Microbiology, 2024).

One series concerns P. aeruginosa. Description: MIC of known DHFR inhibitors against P. aeruginosa. In kind it is cell-based, Pseudomonas aeruginosa. To be noted: strain not named.
The test system of a further series is sheep red blood cells. Description: Haemolysis. As to conditions: 1 h, vs Triton X-100 100% lysis. In kind it is cell-based. As to the method:
(§1) Samples were treated at 37 °C with shaking for 1 h and then centrifuged. Supernatants were collected and absorbances were measured at 405 nm in a Tecan InfiniteM200 Pro microplate reader.

The subject of series [1] is P. aeruginosa PA14. Description: Colony-forming units counting after antibiotic treatment. To be noted: 2× MIC (fluorofolin 6.2, TMP 250, polymixin B 4 μg ml^−1). It is filed as cell-based, Pseudomonas aeruginosa. As to the method:
P. aeruginosa PA14 overnight cultures were diluted 1:100 and grown to exponential phase (OD600 = 0.4–0.6). Cultures were diluted 1:10 and treated with antibiotic. At each time point, 150 μl of culture was removed, serial diluted 1:10 six times and plated onto LB agar plates. Plates were grown overnight at 37 °C, after which visible colonies were counted. C.f.u.s ml^−1 are reported from dilutions in which ~10–100 single colonies were visible.

Series [2] concerns Pseudomonas aeruginosa PA14. Description: MIC against P. aeruginosa PA14 in LB broth. In kind it is cell-based. As to the method: (§2) Overnight cultures were diluted 1:150 in LB broth and added to a 96-well plate. Antibiotics were serially diluted 1:2 and added to columns of the 96-well plate and grown at 37 °C with continuous shaking. Cell growth was measured using optical density at 600 nm (OD600). MIC assays were performed in either BioTek Synergy HT or Tecan InfiniteM200 Pro microplate readers.

Series [3] concerns P. aeruginosa PA14 folate metabolism (dUMP, AICAR, GAR). Description: Metabolomics (LC–MS) of treated PA14. It is filed as cell-based, Pseudomonas aeruginosa. As to conditions: PA14, 15 min. On the procedure: Metabolites were extracted by vacuum filtering 15 ml of treated cells using 0.45 μm HNWP Millipore nylon membranes and placing the filters into an ice-cold quenching solution of 40:40:20 methanol:acetonitrile:H2O. Extracts were kept on dry ice for 1 h and centrifuged at 16,000 g for 1 h at 4 °C. The supernatant was kept at -80 °C until mass spectrometry analysis. Liquid chromatography-mass spectrometry (LC-MS) analysis of metabolites was performed on an Orbitrap Exploris 240 mass spectrometer coupled with hydrophilic interaction liquid chromatography (HILIC)[68]. […] Waters 196006724), with a gradient of solvent A (95 vol. % H2O, 5 vol. % acetonitrile, with 20 mM ammonium acetate and 20 mM ammonium hydroxide, pH 9.4) and solvent B (acetonitrile). Flow rate was 0.15 ml min^-1 and column temperature was set at 25 °C. […] Raw mass spectrometry data were converted to mzXML format by MSConvert (ProteoWizard). Pick-peaking was done on […].0.8.0, Elucidata).

Series [4] deals with P. aeruginosa PA14 oprM transposon mutant. Description: microbe, parasite or virus in culture. It is filed as cell-based. As to conditions: Pseudomonas aeruginosa. On the procedure:
as §2
(§3) P. aeruginosa PA14 transposon mutants were generated by the Ausubel Lab (https://pa14.mgh.harvard.edu/cgi-bin/pa14/home.cgi)[67]. The MICs of fluorofolin and TMP against strains with disrupted MexA, MexB and OprM were determined as above and compared to the parental strain. As transposon mutants in MexB were represented twice in this collection, the MIC was confirmed across both mutant strains.

The subject of series [5] is P. aeruginosa PA14 mexA transposon mutant. Kind of series: microbe, parasite or virus in culture. As to conditions: Pseudomonas aeruginosa. In kind it is cell-based. As to the method:
as §2, §3

Series [6] has as its system P. aeruginosa PA14 mexB transposon mutant. Kind of series: microbe, parasite or virus in culture. In kind it is cell-based. To be noted: Pseudomonas aeruginosa. As to the method: as §2, §3
The test system of series [7] is P. aeruginosa PA14. In kind it is cell-based, Pseudomonas aeruginosa. To be noted: PA14, 0.25 h. On the procedure:
Overnight P. aeruginosa PA14 or E. coli lptD4213 cultures were diluted 1:100 and grown to mid exponential phase at 37 °C. Cultures were diluted 1:10 into PBS and treated with antibiotics for 15 min. P. aeruginosa PA14 was stained with TO-PRO-3 (640 nm excitation, 670/30 nm emission) to measure cell membrane integrity. E. coli lptD4213 was stained with both TO-PRO-3 and DiOC2(3) (ThermoFisher B34950) to measure cell membrane integrity and membrane potential. DiOC2(3) was evaluated as a ratio of green (488 nm excitation, 525/50 nm emission) to red (488 nm excitation, 610/20 nm emission)[66]. The LSRII flow cytometer (BD Biosciences) at the Flow Cytometry Resource Facility, Princeton University, was used to measure the fluorescent intensities of both dyes in response to antibiotic treatment. 100,000 events were recorded for each data file. Gates for permeabilization were determined using polymixin B (Sigma-Aldrich P1004) and untreated controls. Gates for depolarization were determined using carbonyl cyanide m-chlorophenyl hydrazone (CCCP) as a positive control. Data were analysed using FlowJo v.10 software.

Another series is described as follows: Haemolysis. In kind it is cell-based, sheep. As to conditions: sheep, defibrinated sheep red blood cells, 1 h, vs Triton X-100 100% lysis. As to the method: as §1
[8] abbreviates: 2× MIC (fluorofolin 6.3, TMP 250 μg ml^−1), one value per replicate.

Where “and” joins values, the source holds several entries; their conditions need not be identical. Identical values can stand only once. Like-named read-outs stand apart in the source and are kept apart here.

On to `Nc1nc(N)c2c(ccc3c2ccn3Cc2ccc(-c3ccccc3)cc2)n1` [IRS-16], for which the MIC in the series with P. aeruginosa is more than 50 µg/mL. Also, the “% Hemolysis, Mean” value in the series on sheep red blood cells (0.78125 ug/mL) is given as 6.068%; with sheep red blood cells (1.5625 ug/mL), 12.9642%; in the series on sheep red blood cells (3.125 ug/mL), 26.947%; with sheep red blood cells (6.25 ug/mL), 25.0196%; in the series with sheep red blood cells (12.5 ug/mL) it was 26.9567%; in the series on sheep red blood cells (25 ug/mL), 30.487%. In addition, the “% Hemolysis, Mean” value with sheep red blood cells (50 ug/mL) worked out at 39.1325%.
Take `COc1cc(Cc2cnc(N)nc2N)cc(OC)c1OC` [Trimethoprim, trimethoprim, reference compound]: the “PA14 CFU/mL, Mean” value worked out at 197000 CFU/mL in the series with P. aeruginosa PA14 [1] (Time 0 h), 178000 CFU/mL with P. aeruginosa PA14 [1] (Time 1 h), 187000 CFU/mL with P. aeruginosa PA14 [1] (Time 2 h) and 338889 CFU/mL with P. aeruginosa PA14 [1] (Time 4 h). Besides, the MIC worked out at 125 µg/mL in series [2] (P. aeruginosa PA14); 125 µg/mL in series [2] (Pseudomonas aeruginosa, Wildtype PA14, control for each drug stock, read-out: MIC); 25 µg/mL in series [4]; 50 µg/mL in series [5]; 25 µg/mL in [6]. Further, the “change of AICAR and dUMP” value in [3] (2× MIC) is listed as “significant upregulation”. Moreover, the “Normalized Ion Counts AICAR” value in series [3] (setting [8]) was 1099947 and 1907694 and 151411. The “Normalized Ion Counts GAR” value in [3] (setting [8]) was 163607 and 121038 and 24881.8. In addition, the “Normalized Ion Counts dUMP” value in series [3] (setting [8]) is 2000000 and 3000000. Also, in the series on P. aeruginosa PA14 [7], the “Permeabilized (TO-PRO-3 gate)” value turned out to be 0.42. In “Haemolysis” (0.78125 ug/mL), the hemolysis at 1 h, 0.78125 ug/mL worked out at 0.423%. Further, in “Haemolysis” (1.5625 ug/mL), the hemolysis at 1 h, 1.5625 ug/mL was 0.123%. In addition, the hemolysis at 1 h, 3.125 ug/mL in “Haemolysis” (3.125 ug/mL) worked out at 0.0766%. The compound also returned a hemolysis at 1 h, 6.25 ug/mL in the series “Haemolysis” (6.25 ug/mL) of 1.27%. The compound further returned a hemolysis at 1 h, 12.5 ug/mL in “Haemolysis” (12.5 ug/mL) of 0.258%. In the series “Haemolysis” (25 ug/mL), this compound gave a hemolysis at 1 h, 25 ug/mL of 0.606%. This compound displayed a hemolysis at 1 h, 50 ug/mL in “Haemolysis” (50 ug/mL) of 4.08%.
